Tests used:
RXR = experiment: Activation of human cells expressing nuclear receptors; type: cell-based
[1] = test system: Angiopoietin-like 4 (ANGPTL4); experiment: In vivo expression of PPAR regulated target gene in rat muscle
LXRα = molecular target: T1, LXRα (Homo sapiens, UniProt Q13133); experiment: Activation of human cells expressing nuclear receptors; type: cell-based
T1 sequence (Q13133 1-447): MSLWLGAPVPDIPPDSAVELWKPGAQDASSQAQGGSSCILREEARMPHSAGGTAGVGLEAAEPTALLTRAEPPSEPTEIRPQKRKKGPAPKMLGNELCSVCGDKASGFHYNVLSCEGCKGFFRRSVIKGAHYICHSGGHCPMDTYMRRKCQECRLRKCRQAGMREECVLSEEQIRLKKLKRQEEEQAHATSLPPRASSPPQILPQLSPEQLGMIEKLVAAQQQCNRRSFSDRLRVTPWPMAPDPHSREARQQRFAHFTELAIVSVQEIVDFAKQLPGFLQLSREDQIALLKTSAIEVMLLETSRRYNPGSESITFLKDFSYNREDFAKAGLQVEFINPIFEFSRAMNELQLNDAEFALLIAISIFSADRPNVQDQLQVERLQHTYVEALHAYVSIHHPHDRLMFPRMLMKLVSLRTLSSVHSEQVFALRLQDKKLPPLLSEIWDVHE

[2] = Clinical studies, safety and tolerability; type: in vivo, human
human PPARδ = molecular target: T2, human PPARδ (Homo sapiens, UniProt Q03181); experiment: PPAR agonist activity in human cell lines expressing PPAR isotypes; type: cell-based
T2 sequence (Q03181 1-441): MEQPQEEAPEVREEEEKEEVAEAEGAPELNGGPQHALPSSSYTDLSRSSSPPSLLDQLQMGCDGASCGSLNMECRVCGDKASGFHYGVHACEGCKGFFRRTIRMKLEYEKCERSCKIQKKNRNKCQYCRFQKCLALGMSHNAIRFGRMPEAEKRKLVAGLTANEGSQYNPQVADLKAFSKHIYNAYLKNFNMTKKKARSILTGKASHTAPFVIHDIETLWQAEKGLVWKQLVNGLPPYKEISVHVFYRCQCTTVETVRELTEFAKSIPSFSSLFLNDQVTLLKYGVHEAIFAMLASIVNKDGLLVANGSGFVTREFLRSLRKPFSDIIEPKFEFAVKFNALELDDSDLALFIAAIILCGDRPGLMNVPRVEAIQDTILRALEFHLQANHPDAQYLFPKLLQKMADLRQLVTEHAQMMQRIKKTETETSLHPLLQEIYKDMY
Experimental: (§1) Compound I is a PPARδ agonist that is useful in the methods of treatment described herein. In human cell lines expressing all three peroxisome proliferator-activated receptor (PPAR) isotypes, Compound I is a potent (EC50<100 nM) and selective human PPARδ agonist, with minor activity on PPARα (EC50>10 μM) and PPARγ (EC50>10 μM).

PPARγ = molecular target: T3, PPARγ (Homo sapiens, UniProt P37231); experiment: as above; type: cell-based
T3 sequence (P37231 1-505): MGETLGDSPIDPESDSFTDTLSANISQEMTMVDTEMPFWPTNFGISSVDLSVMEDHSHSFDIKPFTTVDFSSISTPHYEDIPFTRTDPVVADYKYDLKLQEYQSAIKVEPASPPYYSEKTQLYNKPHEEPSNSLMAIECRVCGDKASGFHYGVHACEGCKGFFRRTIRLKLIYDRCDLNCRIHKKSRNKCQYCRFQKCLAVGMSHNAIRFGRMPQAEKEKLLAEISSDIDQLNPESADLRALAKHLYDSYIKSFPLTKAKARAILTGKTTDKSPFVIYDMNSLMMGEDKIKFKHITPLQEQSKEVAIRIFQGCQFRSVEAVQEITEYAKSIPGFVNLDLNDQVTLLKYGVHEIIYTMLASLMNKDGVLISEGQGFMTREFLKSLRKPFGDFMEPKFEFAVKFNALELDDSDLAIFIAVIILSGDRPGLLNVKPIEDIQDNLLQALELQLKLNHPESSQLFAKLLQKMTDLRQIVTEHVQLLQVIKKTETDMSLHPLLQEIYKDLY
Experimental: as §1

PPARα = molecular target: T4, PPARα (Homo sapiens, UniProt Q07869); experiment: as above; type: cell-based
T4 sequence (Q07869 1-468): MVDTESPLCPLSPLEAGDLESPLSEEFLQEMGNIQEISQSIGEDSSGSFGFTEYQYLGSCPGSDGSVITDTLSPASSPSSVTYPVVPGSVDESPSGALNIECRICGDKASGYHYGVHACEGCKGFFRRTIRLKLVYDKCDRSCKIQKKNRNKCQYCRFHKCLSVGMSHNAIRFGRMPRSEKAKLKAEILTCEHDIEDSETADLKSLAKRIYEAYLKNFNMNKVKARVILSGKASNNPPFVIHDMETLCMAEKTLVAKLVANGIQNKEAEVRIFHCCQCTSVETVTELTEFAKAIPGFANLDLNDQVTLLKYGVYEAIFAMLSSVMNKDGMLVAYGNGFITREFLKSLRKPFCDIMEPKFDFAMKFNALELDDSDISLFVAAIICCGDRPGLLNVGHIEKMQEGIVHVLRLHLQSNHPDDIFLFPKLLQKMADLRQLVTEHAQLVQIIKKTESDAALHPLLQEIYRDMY
Experimental: as §1

[3] = test system: PPARδ regulated genes (CPT1b, PGC-1α); experiment: In vivo expression of PPARδ regulated genes in mice muscle
FXR = molecular target: T5, FXR (Homo sapiens, UniProt Q96RI1); experiment: Activation of human cells expressing nuclear receptors; type: cell-based
T5 sequence (Q96RI1 1-486): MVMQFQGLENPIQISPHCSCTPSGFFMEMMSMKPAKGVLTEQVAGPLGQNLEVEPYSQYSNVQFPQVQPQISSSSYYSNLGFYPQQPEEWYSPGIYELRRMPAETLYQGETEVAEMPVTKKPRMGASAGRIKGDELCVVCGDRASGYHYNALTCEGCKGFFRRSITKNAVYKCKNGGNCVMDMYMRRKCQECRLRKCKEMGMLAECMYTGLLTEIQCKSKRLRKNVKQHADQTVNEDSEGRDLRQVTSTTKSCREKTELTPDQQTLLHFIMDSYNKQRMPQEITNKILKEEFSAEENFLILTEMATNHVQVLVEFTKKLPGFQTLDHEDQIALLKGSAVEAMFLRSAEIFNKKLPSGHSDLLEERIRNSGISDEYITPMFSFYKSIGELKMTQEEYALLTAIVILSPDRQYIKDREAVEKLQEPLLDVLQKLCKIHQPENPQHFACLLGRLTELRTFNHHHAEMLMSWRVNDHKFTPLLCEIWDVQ

LXRβ = molecular target: T6, LXRβ (Homo sapiens, UniProt P55055); experiment: as above; type: cell-based
T6 sequence (P55055 1-460): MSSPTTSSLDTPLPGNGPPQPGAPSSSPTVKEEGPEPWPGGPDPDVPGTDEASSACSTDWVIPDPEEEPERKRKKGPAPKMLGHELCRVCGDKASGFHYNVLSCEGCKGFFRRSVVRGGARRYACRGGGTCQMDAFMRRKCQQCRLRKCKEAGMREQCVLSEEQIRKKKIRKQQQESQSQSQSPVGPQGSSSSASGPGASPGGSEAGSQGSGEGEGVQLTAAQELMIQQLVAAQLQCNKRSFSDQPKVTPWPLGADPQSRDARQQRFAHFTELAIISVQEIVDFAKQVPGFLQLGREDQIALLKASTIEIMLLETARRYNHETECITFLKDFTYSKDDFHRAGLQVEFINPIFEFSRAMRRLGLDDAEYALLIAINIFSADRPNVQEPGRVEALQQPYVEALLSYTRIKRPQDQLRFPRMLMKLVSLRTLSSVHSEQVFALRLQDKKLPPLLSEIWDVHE

PPARδ = molecular target: T7, PPARδ (Mus musculus, UniProt P35396); settings: mice, cited from earlier work
T7 construct: host or cells: mice (skeletal muscle), in vivo
T7 sequence (P35396 1-440): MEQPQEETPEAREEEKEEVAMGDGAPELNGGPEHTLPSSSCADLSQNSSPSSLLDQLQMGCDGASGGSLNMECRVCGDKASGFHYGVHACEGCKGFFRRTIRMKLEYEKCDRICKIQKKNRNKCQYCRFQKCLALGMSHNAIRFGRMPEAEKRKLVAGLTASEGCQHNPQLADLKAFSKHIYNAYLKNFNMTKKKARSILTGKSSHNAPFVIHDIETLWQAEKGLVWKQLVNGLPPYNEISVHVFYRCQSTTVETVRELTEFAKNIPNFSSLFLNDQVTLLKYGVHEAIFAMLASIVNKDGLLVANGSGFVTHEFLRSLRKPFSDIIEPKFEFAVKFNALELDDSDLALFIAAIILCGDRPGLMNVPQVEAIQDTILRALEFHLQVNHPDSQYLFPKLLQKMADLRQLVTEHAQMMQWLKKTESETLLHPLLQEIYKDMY

[4] = human cell lines expressing all three PPAR isotypes
[5] = in combination with exercise, 4 weeks

In the case of Cc1cc(OC/C=C(/c2ccc(F)cc2)c2ccc(C#CCN3CCOCC3)cc2)ccc1OCC(=O)O [Compound I, (E)-2-(4-((3-(4-fluorophenyl)-3-(4-(3-morpholinoprop-1-yn-1-yl)phenyl)allyl)oxy)-2-methylphenoxy)acetic acid], the “activation of human cells expressing RXR” value (RXR) is reported as “did not result in activation”, the “expression of ANGPTL4” value [1] is reported as “increased the expression” and the “activation of human cells expressing LXRα” value (LXRα) is reported as “did not result in activation”. The “incidence of adverse events (AEs) versus placebo” value [2] was “similar”, the “serious adverse events (SAEs)” value [2] was “No serious adverse events (SAEs) were reported” and the safety and tolerability ([2]; Compound I or a pharmaceutically acceptable salt, solvate or hydrate) was “safe and well tolerated”. For the same molecule, the “type of agonism on PPARδ” value (human PPARδ) was “full PPARδ agonist”, the EC50 (human PPARδ; [4]) was less than 0.1 µM and the “selectivity for PPARδ over PPARγ” value (PPARγ) was 400 fold. The “type of agonism on PPARγ” value (PPARγ) was “only partial agonist activity”, the EC50 (PPARγ; [4]) was greater than 10 µM and the “selectivity for PPARδ over PPARα” value (PPARα) was 100 fold. For the same molecule, the “type of agonism on PPARα” value (PPARα) was “only partial agonist activity”, the EC50 (PPARα; [4]) was greater than 10 µM and the “expression of PPARδ regulated genes CPT1b (beta-oxidation of long chain fatty acids) and PGC-1α (mitochondrial biogenesis)” value [3] was “altered the expression patterns”. The “activation of human cells expressing FXR” value (FXR) was “did not result in activation” and the “activation of human cells expressing LXRβ” value (LXRβ) was “did not result in activation”.

For Cc1cc(SCc2sc(-c3ccc(C(F)(F)F)cc3)nc2C)ccc1OCC(=O)O [GW1516], the energy substrate usage (PPARδ; 8 weeks) is listed as “clear shift in energy substrate usage from glucose to fatty acid oxidation”, the “muscle fibers, mitochondrial biogenesis” value (PPARδ; [5]) is listed as “synergistically induced fatigue-resistant oxidative muscle fibers and mitochondrial biogenesis” and the physical performance (PPARδ; [5]) is listed as “enhanced physical performance”.
